Values quoted from earlier work, collected in patent publication US5905084A, “5-HTIF -agonists effective in treating migraine” (priority 1997, dated 1999).

Legend:
neurogenic inflammation = conditions: Neurology, 43(suppl. 3), S16-S20 (1993)
[1] = system: exploratory behavior in arthritic animals; conditions: Larsen and Arnt (1985)

| Compound | neurogenic inflammation blocked (neurogenic inflammation) | exploratory behavior [1] |
| --- | --- | --- |
| CNS(=O)(=O)Cc1ccc2[nH]cc(CCN(C)C)c2c1.O=C(O)CCC(=O)O [Compound I, 3-[2-(dimethylamino)ethyl]-N-methyl-1H-indole-5-methanesulfonamide butane-1,4-dioate (1:1)] | blocked | – |
| CN(C)CCCC1(c2ccc(F)cc2)OCc2cc(C#N)ccc21 (centres unmarked) [citalopram] | – | improve exploratory behavior |
